Measurements reported in patent US20250092065A1, “2-(INDAZOL-5-YL)-6-(PIPERIDIN-4-YL)-1,7-NAPHTHYRIDINE DERIVATIVES AND RELATED COMPOUNDS AS MODULATORS FOR SPLICING NUCLEIC ACIDS AND FOR THE TREATMENT OF PROLIFERATIVE DISEASES” (REMIX THERAPEUTICS INC., priority 2022, published 2025).
Where two headings read alike, the source gives them in different places.

Assays:
[1] = system: HTT mRNA; assay: RT-qPCR splicing assay, HTT mRNA canonical (CJ) and alternative (AJ) junction; type: cell-based, human; settings: Homo sapiens; for AC50: HTT alternative junction mRNA, read-out: HTT AJ (increase in AJ mRNA, AC50)
Procedure, shortened: (§1)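 Junction-specific RT-qPCR read-out: CJ and AJ isoform levels, housekeeper-normalized (GAPDH/GUSB/PPIA), ΔΔCt vs DMSO, converted to RQ then % response. Cells: A673 (DMEM/10% FBS, adhered 24 h) or K562 (IMDM/10% FBS). Compound 11-pt 3-fold, top 10 uM, 24 h, 37 °C.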

[2] = system: MYB mRNA; assay: RT-qPCR splicing assay, MYB mRNA canonical (CJ) and alternative (AJ) junction; type: cell-based, human; settings: Homo sapiens; for AC50: MYB alternative junction mRNA, read-out: MYB AJ (increase in AJ mRNA, AC50)
Procedure, shortened: as §1

[3] = system: SMN2 mRNA; assay: RT-qPCR splicing assay, SMN2 mRNA; type: cell-based, human; settings: Homo sapiens, canonical junction qPCR panel, Table 4; read-out: SMN2 IC50 (decrease in CJ mRNA levels)
Procedure, shortened: as §1

[4] = system: MYB; assay: HiBiT protein abundance assay, MYB (K562 HiBiT knock-in); type: cell-based, human; settings: HiBiT knock-in K562 cells, 24 hours, top dose 10 μM
Procedure, shortened: (§2)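 Tagged-protein levels were measured as HiBiT/LgBiT luminescence in lysed K562 knock-in cells exposed to serially diluted compound (up to 10 μM final) for 24 hours. A four-parameter logistic regression of control-normalized signal yielded the IC50.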

[5] = system: HTT; assay: HiBiT protein abundance assay, HTT (K562 HiBiT knock-in); type: cell-based, human; settings: HiBiT knock-in K562 cells, 24 hours, top dose 10 μM
Procedure, shortened: as §2

[6] = system: Target C; assay: HiBiT protein abundance assay, Target C (K562 HiBiT knock-in); type: cell-based, human; settings: HiBiT knock-in K562 cells, 24 hours, top dose 10 μM
Procedure, shortened: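 K562 HiBiT knock-in cells (10000/well) were treated 24 h at 37° C with a 10-point 3-fold dilution series (top 10 μM final, ≤0.25% DMSO). HiBiT luminescence was read after lytic LgBiT detection. Percent response used unmodified K562 and DMSO-treated knock-in controls, and IC50 came from a four-parameter fit at 50% of untreated.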

[7] = system: K562 cells; assay: Cell Titer Glo 2.0 cell viability (toxicity) assay, K562; settings: 500 cells/well, 72 hours
Procedure: Compounds described herein were screened for toxicity in K562 (human chronic myelogenous leukemia) and SH-SY5Y (human neuroblastoma) cells using a Cell Titer Glo 2.0 assay.
Cells were plated at 500 cells/well (K562 cells) in 45 μL of IMDM supplemented with 10% FBS in a 384-well opaque plate. Wells containing only medium were used as a blank control. Test compounds (e.g., compounds of Formula (I) or (II)) were first serially diluted in DMSO then diluted 1:100 with EIDM+10% FBS. The final concentration of DMSO was 0.1% in each well. The cells were incubated for 72 hours at 37° C. and 5% CO2 before assaying with Cell Titer Glo 2.0 reagent.

[8] = HTT canonical junction mRNA, RT-qPCR, read-out: HTT CJ (decrease in CJ mRNA levels, IC50)
[9] = canonical junction qPCR panel, Table 4, read-out: HTT IC50 (decrease in CJ mRNA levels)
[10] = MYB canonical junction mRNA, RT-qPCR, read-out: MYB CJ (decrease in CJ mRNA levels, IC50)
[11] = canonical junction qPCR panel, Table 4, read-out: MYB IC50 (decrease in CJ mRNA levels)

Row | SMILES | AC50 ([1]; RT-qPCR) | IC50 [1, 8] | IC50 [1, 9] | AC50 ([2]; RT-qPCR) | IC50 [2, 10] | IC50 [2, 11] | IC50 [3] | IC50 [4] | IC50 [5] | IC50 [6] | Effect of Exemplary Compounds on Cell Viability, K562 [7]
1 | Cn1cc2cc(-c3ccc4cc(C5CCNCC5)c(F)cc4n3)c(O)cc2n1 [Compound 144] | > 10000 nM | > 10000 nM | > 10000 nM | > 10000 nM | > 10000 nM | > 10000 nM | > 10000 nM | > 10000 nM | > 10000 nM | > 10000 nM | D (D represents greater than 10 μM in K562 cells)
2 | COc1cc2nn(C)cc2cc1-c1ccc2cc(C3CCNCC3)c(F)cc2n1 [Compound 145] | > 10000 nM | > 10000 nM | > 10000 nM | > 10000 nM | > 10000 nM | > 10000 nM | > 10000 nM | > 10000 nM | > 10000 nM | > 10000 nM | D (D represents greater than 10 μM in K562 cells)
3 | Cn1cc2cc(O)c(-c3ccc4nc(C5CCNCC5)ccc4n3)cc2n1 [Compound 146] | 1000 to 10000 nM | 1000 to 10000 nM | 1000 to 10000 nM | 1000 to 10000 nM | 1000 to 10000 nM | 1000 to 10000 nM | 100 to 1000 nM | 1000 to 10000 nM | 1000 to 10000 nM | 1000 to 10000 nM | C (C represents 1000-9999 nM)
4 | Cc1nc2cc(O)c(-c3ccc4nc(C5CCNCC5)ccc4n3)cc2s1 [Compound 148] | 1000 to 10000 nM | 1000 to 10000 nM | 1000 to 10000 nM | 100 to 1000 nM | 100 to 1000 nM | 100 to 1000 nM | < 100 nM | 1000 to 10000 nM | 1000 to 10000 nM | 1000 to 10000 nM | B (B represents 100-1000 nM)
5 | Cc1cn2cc(-c3ccc4nc(C5CCNCC5)ccc4n3)c(O)cc2n1 [Compound 149] | > 10000 nM | > 10000 nM | > 10000 nM | > 10000 nM | 1000 to 10000 nM | 1000 to 10000 nM | 100 to 1000 nM | 1000 to 10000 nM | 1000 to 10000 nM | > 10000 nM | C (C represents 1000-9999 nM)
6 | Cc1cn2nc(-c3ccc4nc(C5CCNCC5)ccc4n3)c(O)c2c(C)n1 [Compound 150] | < 100 nM | < 100 nM | < 100 nM | < 100 nM | < 100 nM | < 100 nM | < 100 nM | < 100 nM | < 100 nM | < 100 nM | A (A represents <100 nM)
7 | c1c[nH]c(-c2ccc3nc(C4CCNCC4)ccc3n2)n1 [Compound 152] | > 10000 nM | > 10000 nM | > 10000 nM | > 10000 nM | > 10000 nM | > 10000 nM | 1000 to 10000 nM | > 10000 nM | > 10000 nM | > 10000 nM | D (D represents greater than 10 μM in K562 cells)
8 | Cn1cc2cc(-c3ccc4nc(N5CC[C@@H](NC(C)(C)C)C5)ccc4n3)c(O)cc2n1 [Compound 153] | < 100 nM | < 100 nM | < 100 nM | < 100 nM | < 100 nM | < 100 nM | < 100 nM | < 100 nM | < 100 nM | < 100 nM | B (B represents 100-1000 nM)
9 | Cn1cc2cc(-c3ccc4nc(N5CC[C@H](NC(C)(C)C)C5)ccc4n3)c(O)cc2n1 [Compound 154] | < 100 nM | < 100 nM | < 100 nM | < 100 nM | 100 to 1000 nM | 100 to 1000 nM | < 100 nM | < 100 nM | < 100 nM | < 100 nM | A (A represents <100 nM)
10 | Cn1cc2cc(-c3ccc4nc(N5CC[C@@H](NC6CCC6)C5)ccc4n3)c(O)cc2n1 [Compound 157] | < 100 nM | < 100 nM | < 100 nM | < 100 nM | < 100 nM | < 100 nM | < 100 nM | < 100 nM | < 100 nM | 100 to 1000 nM | B (B represents 100-1000 nM)
11 | Cn1cc2cc(-c3ccc4nc(N5CCC(NC6CC6)C5)ccc4n3)c(O)cc2n1 (stereo not shown) [Compound 158] | < 100 nM | < 100 nM | < 100 nM | < 100 nM | < 100 nM | < 100 nM | < 100 nM | < 100 nM | < 100 nM | 100 to 1000 nM | B (B represents 100-1000 nM)
12 | Cn1cc2cc(-c3ccc4nc(OC5CNC5)ccc4n3)c(O)cc2n1 [Compound 159] | 1000 to 10000 nM | 1000 to 10000 nM | 1000 to 10000 nM | 1000 to 10000 nM | 1000 to 10000 nM | 1000 to 10000 nM | 100 to 1000 nM | 100 to 1000 nM | 100 to 1000 nM | 1000 to 10000 nM | C (C represents 1000-9999 nM)
13 | Cn1cc2cc(-c3ccc4nc(N5CC[C@]67CCN[C@H]6CC[C@H]57)ccc4n3)c(O)cc2n1 [Compound 160] | 100 to 1000 nM | 100 to 1000 nM | 100 to 1000 nM | 100 to 1000 nM | 100 to 1000 nM | 100 to 1000 nM | < 100 nM | 100 to 1000 nM | 100 to 1000 nM | 100 to 1000 nM | B (B represents 100-1000 nM)
14 | COc1cc2ccncc2cc1-c1ccc2nc(N3CCC(NC(C)(C)C)C3)ccc2n1 (stereo not shown) [Compound 161] | > 10000 nM | > 10000 nM | > 10000 nM | > 10000 nM | > 10000 nM | > 10000 nM | 1000 to 10000 nM | > 10000 nM | > 10000 nM | > 10000 nM | C (C represents 1000-9999 nM)
15 | Cn1cc2cc(-c3ccc4nc(N5CCC56CCNC6)ccc4n3)c(O)cc2n1 (stereo not shown) [Compound 162] | > 10000 nM | > 10000 nM | > 10000 nM | > 10000 nM | > 10000 nM | > 10000 nM | 1000 to 10000 nM | > 10000 nM | > 10000 nM | > 10000 nM | C (C represents 1000-9999 nM)
16 | Cn1cc2cc(-c3ccc4nc(N5CCC56CCCNC6)ccc4n3)c(O)cc2n1 (stereo not shown) [Compound 163] | > 10000 nM | > 10000 nM | > 10000 nM | 1000 to 10000 nM | 1000 to 10000 nM | 1000 to 10000 nM | 100 to 1000 nM | 1000 to 10000 nM | 1000 to 10000 nM | > 10000 nM | C (C represents 1000-9999 nM)
17 | Cn1cc2cc(-c3ccc4nc(N5CCC56CCNCC6)ccc4n3)c(O)cc2n1 [Compound 164] | 100 to 1000 nM | 100 to 1000 nM | 100 to 1000 nM | 100 to 1000 nM | 100 to 1000 nM | 100 to 1000 nM | 100 to 1000 nM | 100 to 1000 nM | 100 to 1000 nM | 100 to 1000 nM | B (B represents 100-1000 nM)
18 | Cn1cc2cc(-c3ccc4nc(N5CC(NC(C)(C)C)C5)ccc4n3)c(O)cc2n1 [Compound 165] | 1000 to 10000 nM | 1000 to 10000 nM | 1000 to 10000 nM | 1000 to 10000 nM | 1000 to 10000 nM | 1000 to 10000 nM | 1000 to 10000 nM | 1000 to 10000 nM | 1000 to 10000 nM | 1000 to 10000 nM | B (B represents 100-1000 nM)
19 | CC(C)(C)NC1CCN(c2ccc3nc(-c4cc5cnccc5cc4O)ccc3n2)C1 (stereo not shown) [Compound 166] | > 10000 nM | > 10000 nM | > 10000 nM | > 10000 nM | > 10000 nM | > 10000 nM | > 10000 nM | > 10000 nM | > 10000 nM | 1000 to 10000 nM | B (B represents 100-1000 nM)
20 | Cn1cnc2cc(-c3ccc4nc(N5CCC(NC(C)(C)C)C5)ccc4n3)c(O)cc2c1=O (stereo not shown) [Compound 167] | > 10000 nM | > 10000 nM | > 10000 nM | > 10000 nM | > 10000 nM | > 10000 nM | > 10000 nM | > 10000 nM | > 10000 nM | > 10000 nM | B (B represents 100-1000 nM)
